One may read the IC50 as the midpoint of a concentration-inhibition curve.

In one data set the test system is rat bone marrow. The procedure: 3-amino-6-(4-{3-[(3-methoxypropyl)amino]propyl}phenyl)-N-pyridin-3-ylpyrazine-2-carboxamide mono-besylate was also tested in an in vivo rat genotoxicity micronucleus study. The objective of this study was to investigate whether two oral doses of 3-amino-6-(4-{3-[(3-methoxypropyl)amino]propyl}phenyl)-N-pyridin-3-ylpyrazine-2-carboxamide mono-besylate increased the frequency of micronucleated immature erythrocytes (MIE) in rat bone marrow.
3-amino-6-(4-{3-[(3-methoxypropyl)amino]propyl}phenyl)-N-pyridin-3-ylpyrazine-2-carboxamide mono-besylate was administered to groups of 7 male Wistar Han rats, approximately 10 weeks old at dosing. Groups were given two doses of 0, 25, 125 and 250 mg/kg free-base equivalent (0, 59.5, 297 and 595 umol/kg) 24 hours apart and sampled for bone marrow analysis 24 hours after the second dose. Control rats were dosed with vehicle, 0.5% w/v hydroxypropyl methylcellulose and 0.1% w/v polysorbate 80 in phosphate buffered saline.
Animals were sacrificed 24 hours after the second dose and bone marrow smears prepared, fixed and stained with acridine orange. For each animal, 2000 immature erythrocytes (IE) were scored for the incidence of micronucleated cells (MIE) and the ratio of IE to mature erythrocytes (E) was determined in 1000 cells. In order to act as a quality control procedure, 6 slides from the bone-marrow of rats treated with cyclophosphamide at 20 mg/kg (72 umol/kg) in a previous study were included with the slides from the treated animals prior to staining and coding.

Another data set deals with T1, human GSK3β enzyme (Homo sapiens, UniProt P49841).
T1 construct: His6 (N); purchased Millipore 14-306; host or cells: baculovirus / Sf21 insect cells
As to the kind of experiment: In vitro GSK3β kinase assay (FRET, Z'-LYTE), Test (a). It counts as biochemical. Conditions: read-out: IC50 versus human GSK3β enzyme. The source says: This biochemical assay used a Fluorescence Resonance Energy Transfer (FRET)-based, coupled-enzyme format to determine the ability of test compounds to inhibit substrate phosphorylation by recombinant GSK3β serine/threonine kinase (Kleman-Leyer, K. et al. Drug Disc. Devel. 2003, 6:81-2). The substrate used in this assay was Z′-LYTE™ ser/Thr 9 peptide and the FRET assay kit was obtained from Invitrogen (Paisley, UK, catalogue number PV3324). N-terminal His6-tagged recombinant human GSK313, with an H350 L mutation, was expressed in baculovirus in Sf21 insect cells, purified and obtained from Millipore (Billerica, Mass., USA, catalogue number 14-306 Human).
Test compounds were prepared as 10 mM stock solutions in dimethylsulphoxide (DMSO) and diluted in DMSO as required. Aliquots (2.5 μl) of compound dilutions were added to the wells of an Optiplate-F PerkinElmer 384-well plate (Massachusetts, USA, catalogue number 6007270). Control wells that produced a maximum signal corresponding to maximum enzyme activity were created by using 100% phosphorylated peptide obtained from Invitrogen (Paisley, UK, catalogue number PV3326). A 5 μl aliquot of 100% phosphorylated peptide (100 μM in 1.33× kinase buffer) was added to all maximum control wells. 2.5 μl of 4% DMSO solution (v/v) in 1.33× kinase buffer was added to maximum control wells. Control wells that produced a minimum signal corresponding to 100% inhibited enzyme were created by adding 2.5 μl of 40 μM Staurosporine in 1.33× kinase buffer containing 4% DMSO (v/v). A 5 μl mixture of GSK3β (100 ng/μl) enzyme and non-phosphorylated substrate (Z-LYTE™ ser/Thr 9 peptide, 100 μM) in a 1.33× kinase buffer solution was added to each well except maximum control wells and the assay plate centrifuged at 270 g for 1 minute. The kinase buffer used 1.33× was obtained from Invitrogen (Paisley, UK, catalogue number PV3189) and contained 67 mM HEPES (pH 7.5), 13 mM MgCl2, 1.3 mM EGTA, 0.01% BRIJ-35. Then 2.5 μl adenosine triphosphate (28 μM) in kinase buffer was added per well, centrifuged at 270 g for 1 minute and then the assay plate was shaken for 1 hour at room temperature. A proprietary development solution was prepared by adding 58 μl of development reagent A (Invitrogen, Paisley, UK, catalogue number PV3297) to 2142 μl of development reagent B (Invitrogen, Paisley, UK, catalogue number P3127). […]
The resultant signals arising from laser light excitation at 400 nm were read using a Perkin Elmer Envision spectrophotometer (Perkin Elmer, Massachusetts, USA). […] A ratiometric method, which calculates the ratio (the Emission Ratio) of donor emission to acceptor emission after excitation of the donor fluorophore at 400 nm, quantitates reaction progress, as shown in the equation below. […]

The test system of data set [1] is β-catenin accumulation in the nucleus of murine C3H/10T1/2 cells. Briefly: Cellular beta-catenin stabilisation assay, Test (b). Type of data set: cell-based. To be noted: Mus musculus, 24 hours, read-out: EC50 versus cellular β-catenin accumulation in the nucleus of murine C3H/10T1/2 cells. Here is the method:
This assay uses an imaging based approach to measure the ability of test compounds to promote Beta-catenin stabilisation in the nucleus of C3H10T1/2 cells. Beta-catenin stabilisation is an indicator of GSK3β inhibition.
A C3H10T1/2 mouse clone 8 fibroblast cell line (American Type Culture Collection (ATCC, USA; catalogue number CRL 226) was routinely maintained at 37° C. with 5% CO2 in Basal Medium Eagle (BME, Invitrogen; Paisley, UK; catalogue number 41010) containing 10% (v/v) foetal bovine serum (FBS, Invitrogen, Paisley; UK; catalogue number 10270) and 2 mM L-glutamine (Invitrogen, Paisley, UK; catalogue number 25030024). For the assay, the cells were detached from the culture flask with ‘Accutase’ (Innovative Cell Technologies Inc., San Diego, USA; catalogue number AT104) using standard tissue culture methods and re-suspended in assay media comprising of BME containing 5% (v/v) FBS and 2 mM L-glutamine to give 55,555 cells per ml. Then, 90 μl of this solution was seeded into each well of a clear-bottom 96 well tissue culture plate (Perkin Elmer Viewplate; catalogue number 6005182) using a Multidrop Combi Dispenser (Thermo Fisher Scientific, Loughborough, UK) to give 5,000 cells per well. Plates were incubated overnight at 37° C. with 5% CO2 to allow the cells to adhere to the wells. Test compounds were prepared as 10 mM stock solutions in dimethylsulphoxide (DMSO) (Sigma-Aldrich; Poole, UK, catalogue number 49442-9) and serially diluted in DMSO. A Multidrop Combi was used to dispense 245 μl of pre-warmed assay media into a 96 well plate (Thermo Fisher Scientific, Loughborough, UK; catalogue number 50823925) before 5 μl of serially diluted compound was added to this intermediate plate. After mixing, 10 μl of each compound concentration was added to the cell plates. The total dilution factor from DMSO stock was 500 times. Control cells received either DMSO (0.2% v/v final concentration) or 10 μM positive control compound. The cells were incubated for 24 hours at 37° C. with 5% CO2.
After compound treatment the cells were fixed by the addition of 100 μl of 8% w/v paraformaldehyde (Sigma-Aldrich, Poole, UK; catalogue number P6148), directly into the assay plate wells. The cells were incubated at ambient temperature with fixative for 30 minutes before washing 3 times with 100 μl phosphate-buffered saline (PBS, Sigma-Aldrich; catalogue number D8537). […] The cells were then washed 3 times in 100 μl of PBS before the plates were sealed ready for image capture. Fluorescent images were captured and quantified using the Incell Analyser 3000 (GE Healthcare, USA). […]

Structures can show the parent of a compound that is named as a salt.

T1 sequence (P49841 whole entry): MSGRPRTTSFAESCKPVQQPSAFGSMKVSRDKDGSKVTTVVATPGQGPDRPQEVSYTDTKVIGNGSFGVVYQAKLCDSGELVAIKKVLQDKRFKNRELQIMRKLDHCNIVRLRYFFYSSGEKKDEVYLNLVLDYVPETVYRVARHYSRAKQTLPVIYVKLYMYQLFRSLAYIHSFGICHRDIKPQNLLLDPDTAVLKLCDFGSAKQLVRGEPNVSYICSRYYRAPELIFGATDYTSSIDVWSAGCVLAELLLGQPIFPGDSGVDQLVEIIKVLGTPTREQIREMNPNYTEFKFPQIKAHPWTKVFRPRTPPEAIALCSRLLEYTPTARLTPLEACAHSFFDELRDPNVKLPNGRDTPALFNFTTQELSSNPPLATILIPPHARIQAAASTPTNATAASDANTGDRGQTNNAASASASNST

Regarding `COCCCNCCCc1ccc(-c2cnc(N)c(C(=O)Nc3cccnc3)n2)cc1.O=S(=O)(O)c1ccccc1` [3-amino-6-(4-{3-[(3-methoxypropyl)amino]propyl}phenyl)-N-pyridin-3-ylpyrazine-2-carboxamide mono-besylate], the “Maximum tolerated dose (highest dose)” value in the data set with rat bone marrow (two oral doses 24 hours apart, male Wistar Han rats) is given as 250 mg/kg free-base equivalent. For the same molecule, in the data set with rat bone marrow (two oral doses up to 250 mg/kg free-base equivalent 24 hours apart, bone marrow 24 hours after second dose), the “Incidence of micronucleated immature erythrocytes (MIE) above the vehicle control” value was “no biologically or statistically significant increases”.

`COCCNCCCc1ccc(-c2cnc(N)c(C(=O)Nc3cccnc3)n2)cc1` [Example 5, 3-Amino-6-(4-{3-[(2-methoxyethyl)amino]propyl}phenyl)-N-pyridin-3-ylpyrazine-2-carboxamide tri-hydrochloride]: the IC50 on human GSK3β enzyme was around 0.021 µM. Besides, in data set [1], the EC50 is around 0.902 µM.

Consider `COCCCNCCc1ccc(-c2cnc(N)c(C(=O)Nc3cccnc3)n2)cc1` [Example 6, 3-Amino-6-(4-{2-[(3-methoxypropyl)amino]ethyl}phenyl)-N-pyridin-3-ylpyrazine-2-carboxamide], for which, at human GSK3β enzyme, the IC50 was around 0.048 µM. In addition, the EC50 in data set [1] is around 0.902 µM.

Take `COCCNCCc1ccc(-c2cnc(N)c(C(=O)Nc3cccnc3)n2)cc1` [Example 7, 3-Amino-6-(4-{2-[(2-methoxyethyl)amino]ethyl}phenyl)-N-pyridin-3-ylpyrazine-2-carboxamide tri-hydrochloride]: at human GSK3β enzyme, the IC50 was around 0.08 µM. Besides, the EC50 in data set [1] is around 3.89 µM.

In the case of `O=P1(N(CCCl)CCCl)NCCCO1` (stereo not drawn) [cyclophosphamide, reference compound], in the data set with rat bone marrow (quality control slides, rats given 20 mg/kg in a previous study), the “Incidence of MIE compared with the vehicle control values” was “significantly increased”.

The values are drawn from US8198285B2, “Pyrazine derivatives” (Astrazeneca AB, priority 2010, dated 2012).
